Assay results: patent US8697419B2, “Compositions and methods for culturing spirochetes” (Advanced Laboratory Services, Inc., priority 2011, dated 2014)

What was measured:
Type in all cases: cell-based
Borrelia burgdorferi [1] = assay: Effect of antibiotic concentration on spirochete growth in BSK-H medium, dark-field microscopy
Description: (§1) The cells were cultured for 6 days with different concentration of rabbit serum, DTT and antibiotics, as depicted, and cellular growth was evaluated by direct cell counting of motile spirochetes using dark field microscopy. Each set of data represents three independent experiments (mean±SD). Statistical significance was determined using two-sample paired t-test. The data *p-values<0.05 indicates statistical significance as related to control.
To determine the effect of antibiotic concentration on spirochete growth, Borrelia burgdorferi were cultured in BSK-H medium containing 12% rabbit serum, 100 μg/ml DTT and one of the following antibiotics: 0.5 μg/ml rifampicin, 50 μg/ml rifampicin, a 5 μg/ml rifampicin disc (resulting in final concentration of 0.4 μg/ml), 50 μg/ml phosphomycin, 100 μg/ml phosphomycin, or the combination of 50 μg/ml rifampicin and 50 μg/ml phosphomycin. The spirochetes were incubated in a CO2 incubator at 34° C. with 5% CO2 and 100% humidity for 6 days, at which time spirochete growth was evaluated by dark-field microscopy. […] See, FIG. 2C.

Borrelia burgdorferi [2] = assay: Effect of DTT concentration on spirochete growth in BSK-H medium, dark-field microscopy
Description: as §1
The effect of the addition of a reducing agent, such as DTT, to the culture media was also evaluated. To determine the effect of DTT concentration on spirochete growth, Borrelia burgdorferi were cultured in BSK-H medium with 6%, 12%, and 20% rabbit serum and either 0.145 μg/ml DTT or 100 μg/ml DTT. The spirochetes were incubated in a CO2 incubator at 34° C. with 5% CO2 and 100% humidity for 6 days, at which time spirochete growth was evaluated by dark-field microscopy. […] See, FIG. 2B. […] See, FIG. 2B, p=0.0002.

Borrelia burgdorferi [3] = assay: Effect of magnesium concentration on spirochete growth in BSK-H medium; settings: 7.5×10^−2 M vs 7.5×10^−3 M MgCl2, 6% rabbit serum, 6 days, data not shown
Description: To determine the effect of magnesium concentration on spirochete growth, Borrelia burgdorferi were cultured in BSK-H medium with 6% rabbit serum and either 7.5×10^−2 M MgCl2, or 7.5×10^−3 M MgCl2. The spirochetes were incubated in a CO2 incubator at 32° C. with 5% CO2 and 100% humidity for 6 days, at which time spirochete growth was evaluated by dark-field microscopy.

C[C@@H]1O[C@@H]1P(=O)(O)O [phosphomycin]
spirochete yield (Borrelia burgdorferi [1]; 50 or 100 μg/ml phosphomycin, BSK-H, 12% rabbit serum, 100 μg/ml DTT, 6 days, 34° C.): significantly decreased spirochete yield
spirochete yields (Borrelia burgdorferi [1]; lower concentrations of phosphomycin (e.g., 10 and 50 μg/ml), data not shown): significantly decreased spirochete yields

O[C@H](CS)[C@H](O)CS (racemic) [DTT, dithiothreitol]
spirochete yield, 100 μg/ml DTT relative to 0.145 μg/ml DTT (Borrelia burgdorferi [2]; BSK-H with 12% rabbit serum, p=0.0002): twice as many spirochetes
spirochete yields (Borrelia burgdorferi [2]; DTT (0.145 or 100 μg/ml) included in BSK-H culture medium, 6 days): increased spirochete yields

[Cl-].[Cl-].[Mg+2] [MgCl2]
spirochete growth (Borrelia burgdorferi [3]): No significant differences in spirochete growth
